Assays:
CFU-S = assay: Spleen colony formation from RAMBS-treated bone marrow in lethally irradiated mice; format: in vivo, (CBA×C57BL)F1 female mice
Source text: (CBA×C57BL)F1 female mice (n=2500), 2-months old, weighing about 20 g, were used in the experiment.
As is known, there is a close relationship between T-cells and hemopoietic progenitors. It was shown that, along with colony-forming units of spleen (CFU-S), thymocytes participate in colony formation of spleens of irradiated mice by controlling proliferation of the hemopoietic progenitor cells. The fact was established in a test system, which allowed a selective removal of accessory T-cells from bone marrow with the help of rabbit antimouse brain antiserum (RAMBS) and their substitution with other factors. Aliquots (0.1 ml) of bone marrow suspension (2×10^7 cells), RAMBS, and medium 199 were mixed and incubated for 1 hour at 37° C. Then the cells were washed with centrifuging, resuspended and injected to lethally irradiated mice.
According to the aforesaid scheme, instead of thymocytes mice received the peptide, H-Ile-Glu-Trp-OH injections 30 minutes before the injections of RAMBS-treated bone marrow suspension.

[1] = Effect on arterial pressure, cats; format: in vivo
Source text: The effects of H-Ile-Glu-Trp-OH on ECG and arterial pressure were studied in guinea pigs and cats.
The influence of H-Ile-Glu-Trp-OH on arterial pressure was studied in 10 cats.

Acute toxicity in dogs = format: in vivo; details: 6 dogs
Procedure: (§1) To establish the safety of use of the peptides, toxicity tests were performed. Toxicity tests where performed in accordance Pharmacological Committee Russian Federation (RF) "guidelines for the pre-clinical study of general toxic activity of new pharmacological compounds". M., 1985.
(§2) Acute toxicity was studied in 20 guinea pigs and 6 dogs. […] The drug has a wide therapeutic range.

[2] = Observation during study of specific and general pharmacological activity; format: in vivo, mice, guinea pigs, rats, rabbits; details: during the study and 1-6 month observation period
Procedure: In the study of specific and general pharmacological activity, the test animals were mice, guinea pigs, rats, rabbits. Some tests were performed using lymphocyte or monocyte cultures of the peritheric blood of donors and patients with different diseases accompanied by immunity disorders.

[3] = Local irritating effect, guinea pigs; format: in vivo
Source text: The local irritating effect of H-Ile-Glu-Trp-OH was studied in 20 guinea pigs and 5 rabbits.

Solubility = format: physicochemical
Source text: The peptide prepared using this process is a yellowish grey or white powder, soluble in water, substantially insoluble in alcohol and substantially insoluble in chloroform. It has a UV spectrum in the range of 250-300 nm with a maximum at 280±2 nm.

nucleated blood cells = assay: Karyocyte and lymphocyte counts in blood of irradiated mice (4 Gy), scheme 2; format: in vivo
Procedure: Irradiated mice (4 Gy) received intramuscular injections of the peptide in the dose of 10 μg/kg according to 2 schemes.
b) According to scheme 2, the peptide injections were made starting from the 3rd day after the irradiation, at the same time of maximum depletion of the pool of mature nucleated cells and the bone marrow. The groups of mice were formed in the same way as in the previous scheme. […] Tables 9 and 10 present the data on karyocyte and lymphocyte counts in blood (per 1 mm^3) of mice treated according to scheme 2.

Acute toxicity in mice = format: in vivo
Procedure: An acute toxicity study of the peptide was carried out in compliance with methodical recommendations of the Pharmacological Committee of the Russian Federation (RF), "Requirements to Preclinical Study of General Toxic Action of New Pharmacological Substances", M., 1985.
as §1
Acute toxicity was studied in 120 mice (60 males, 60 females). Ld50 was not reached with the dose 10000 times as high as the therapeutic one. The preferred therapeutic dose is 0.001-0.1 mg/kg.

[4] = Chronic toxicity: peritheric blood and internals, 30 days, rabbits; format: in vivo; details: once daily for 30 days
Procedure: II.1 The H-Ile-Glu-Trp-OH effect on the composition and properties of the peritheric blood, the morphological state of the internals.
The drug was injected once daily for 30 days.
The test animals were 20 rabbits and 40 guinea pigs.

[5] = Acute toxicity in guinea pigs; format: in vivo; details: 20 guinea pigs
Procedure: as §1, §2

## H-Ile-Glu-Trp-OH
CFU-S; RAMBS-treated bone marrow + preparation, lethally irradiated mice
  Average Colony Count: 6,3 ± 0,4
CFU-S; mouse, in vivo
  increase of colony yields as compared to RAMBS-treated bone marrow: 2-3 times
[1]
  ECG readings and arterial pressure: No significant difference from control
Acute toxicity in dogs
  acute toxicity: No toxic effects were observed
[2]
  toxic or allergic reactions: no toxic or allergic reactions were observed
[3]
  local irritating effect: no local irritating effect
Solubility; alcohol
  Solubility: moderately soluble
Solubility; chloroform
  Solubility: insoluble
Solubility; water
  Solubility: readily soluble
Nucleated blood cells; scheme 2, 1 Time, Day 7
  Karyocyte Count in Blood: 1.64 ± 0.2 × 10^3
  Lymphocyte in Blood (Absolute): 232
  Lymphocyte in Blood, %: 45.1 ± 3.9%
Nucleated blood cells; scheme 2, 1 Time, Day 11
  Karyocyte Count in Blood: 1.88 ± 0.3 × 10^3
  Lymphocyte in Blood (Absolute): 1365
  Lymphocyte in Blood, %: 49.2 ± 3.8%
Nucleated blood cells; scheme 2, 1 Time, Day 14
  Karyocyte Count in Blood: 1.50 ± 0.2 × 10^3
  Lymphocyte in Blood (Absolute): 1118
  Lymphocyte in Blood, %: 43.3 ± 3.2%
Nucleated blood cells; scheme 2, 1 Time, Day 18
  Karyocyte Count in Blood: 2.62 ± 0.2 × 10^3
  Lymphocyte in Blood (Absolute): 2412
  Lymphocyte in Blood, %: 30.6 ± 2.9%
Nucleated blood cells; scheme 2, 1 Time, Day 21
  Karyocyte Count in Blood: 1.63 ± 0.2 × 10^3
  Lymphocyte in Blood (Absolute): 743
  Lymphocyte in Blood, %: 45.6 ± 3.9%
Nucleated blood cells; scheme 2, 2 Times, Day 7
  Karyocyte Count in Blood: 1.33 ± 0.2 × 10^3
  Lymphocyte in Blood (Absolute): 701
  Lymphocyte in Blood, %: 52.7 ± 2.9%
Nucleated blood cells; scheme 2, 2 Times, Day 11
  Karyocyte Count in Blood: 2.03 ± 0.3 × 10^3
  Lymphocyte in Blood (Absolute): 915
  Lymphocyte in Blood, %: 45.1 ± 5.4%
Nucleated blood cells; scheme 2, 2 Times, Day 14
  Karyocyte Count in Blood: 1.60 ± 0.2 × 10^3
  Lymphocyte in Blood (Absolute): 619
  Lymphocyte in Blood, %: 38.8 ± 2.2%
Nucleated blood cells; scheme 2, 2 Times, Day 18
  Karyocyte Count in Blood: 1.67 ± 0.1 × 10^3
  Lymphocyte in Blood (Absolute): 703
  Lymphocyte in Blood, %: 42.1 ± 1.4%
Nucleated blood cells; scheme 2, 2 Times, Day 21
  Karyocyte Count in Blood: 2.70 ± 0.2 × 10^3
  Lymphocyte in Blood (Absolute): 1220
  Lymphocyte in Blood, %: 45.2 ± 2.3%
Nucleated blood cells; scheme 2, 3 Times, Day 7
  Karyocyte Count in Blood: 2.22 ± 0.3 × 10^3
  Lymphocyte in Blood (Absolute): 968
  Lymphocyte in Blood, %: 43.6 ± 2.1%
Nucleated blood cells; scheme 2, 3 Times, Day 11
  Karyocyte Count in Blood: 1.94 ± 0.2 × 10^3
  Lymphocyte in Blood (Absolute): 892
  Lymphocyte in Blood, %: 46.3 ± 5.4%
Nucleated blood cells; scheme 2, 3 Times, Day 14
  Karyocyte Count in Blood: 1.50 ± 0.2 × 10^3
  Lymphocyte in Blood (Absolute): 744
  Lymphocyte in Blood, %: 47.7 ± 6.1%
Nucleated blood cells; scheme 2, 3 Times, Day 18
  Karyocyte Count in Blood: 2.07 ± 0.2 × 10^3
  Lymphocyte in Blood (Absolute): 7353
  Lymphocyte in Blood, %: 35.5 ± 1.4%
Nucleated blood cells; scheme 2, 3 Times, Day 21
  Karyocyte Count in Blood: 2.45 ± 0.4 × 10^3
  Lymphocyte in Blood (Absolute): 1289
  Lymphocyte in Blood, %: 52.5 ± 3.2%
Nucleated blood cells; scheme 2, 4 Times, Day 7
  Karyocyte Count in Blood: 2.71 ± 0.4 × 10^3
  Lymphocyte in Blood (Absolute): 1231
  Lymphocyte in Blood, %: 45.6 ± 2.5%
Nucleated blood cells; scheme 2, 4 Times, Day 11
  Karyocyte Count in Blood: 3.03 ± 0.5 × 10^3
  Lymphocyte in Blood (Absolute): 1406
  Lymphocyte in Blood, %: 42.6 ± 3.6%
Nucleated blood cells; scheme 2, 4 Times, Day 14
  Karyocyte Count in Blood: 1.17 ± 0.1 × 10^3
  Lymphocyte in Blood (Absolute): 515
  Lymphocyte in Blood, %: 44.0 ± 3.1%
Nucleated blood cells; scheme 2, 4 Times, Day 18
  Karyocyte Count in Blood: 2.48 ± 0.1 × 10^3
  Lymphocyte in Blood (Absolute): 1116
  Lymphocyte in Blood, %: 45.1 ± 1.8%
Nucleated blood cells; scheme 2, 4 Times, Day 21
  Karyocyte Count in Blood: 1.66 ± 0.2 × 10^3
  Lymphocyte in Blood (Absolute): 789
  Lymphocyte in Blood, %: 47.5 ± 5.3%
Acute toxicity in mice; 120 mice
  Ld50: > 10000 times as high as the therapeutic one
Acute toxicity in mice; intraperitoneal injection of a 10,000-fold dose
  acute toxic effect: did not cause an acute toxic effect
[4]
  pathologic changes in the body or peritheric blood: did not cause any pathologic changes
[5]
  acute toxicity: No toxic effects were observed

From patent publication US6159940A, “Method for modulating hemopoiesis” (Immunotech Developments Inc., priority 1999, dated 2000)
